{"source": "patent EP3626820A1", "about": "“ANTICANCER COMPOSITIONS CONTAINING MIRNA MIMICS AND USES THEREOF” (Fundación Imdea Nanociencia, priority 2018, dated 2020)", "key": {"Mel 202 cells [1]": {"test_system": "Mel 202 cells", "assay": "alamarBlue cell viability assay", "type": "cell-based", "conditions": "Mel202, SN38 incubated 24 h, alamarBlue after additional 24 h", "protocol": "Mel 202 cells were cultured in RPMI medium with 10 % fetal bovine serum (FBS), 1 % […]-Penicillin and 1 % L-Glutamine at 37 °C in an incubator. All the procedures were performed inside a laminar flow hood Telstar CV-30/70. Cells were grown in 24 wells plates (30000 cells).\nstock solution of Resazurin sodium salt (1 mg/ml) in PBS was diluted 1 % (v/v) in complete RPMI. After incubation 3 h with the cells, the fluorescence was measured in a plate reader Synergy H4 Hybrid reader (BioTEK). Excitation (Ex) 550 nm; Emission (Em) 590 nm.\n50 µl OptiMem was mixed with oligonucleotides (14, 15, 16, 17) or DNA mix 1. Then, it was mixed with 1 µl Lipofectamine 2000 in 50 µl optiMEM. The final mixture was incubated for 20 min and then 100 µl was added to cells. The final concentration of 14, 15, 16, 17 or DNA mix 1 was 140 nM. After 24 h the cells were washed 3 times with saline phosphate buffer (PBS) and complete medium was added.\nSN38 stock solution was prepared at 100 µM in DMSO. Then different concentrations of SN38 (100 nM, 50 nM, 25 nM) were prepared in complete medium. It was incubated 24 h with the cells, then washed with PBS. After additional 24 h, the alamarBlue assay was carried out. […]\nA volume of 100 µ L functionalized AuNPs were added in optiMEM (500 µ L total volume). The cells were incubated for 24 h, washed with PBS and the viability assessed."}, "Mel 202 cells [2]": {"test_system": "Mel 202 cells", "assay": "Cell cycle analysis by flow cytometry (propidium iodide)", "type": "cell-based", "conditions": "Mel 202 cells harvested after treatment; SN38 25 nM; free (not on nanoparticles)", "protocol": "The samples were trypsinized (BioWest) and fixed with paraformaldehyde 1 % (v/v). The samples were stained for 3 h with 10 µ g/sample RNAsa A from Thermo Scientific and 20 µ g/sample propidium iodide from Sigma. The cell cycle analysis was performed in a Beckman coulter Cytomics 500 Flow cytometer and acquired data were analyzed with the Multicycle software.\nThese experiments were performed in cytometry service of Biotechnology National Centre of Spain."}}, "data": [{"smiles": "CCc1c2c(nc3ccc(O)cc13)-c1cc3c(c(=O)n1C2)COC(=O)[C@]3(O)CC", "note": "[SN38, 7-ethyl-10-hidroxycamptothecin]", "values": [{"measurement": "IC50", "setting": "Mel 202 cells [1]", "result": 0.1, "unit": "µM"}, {"measurement": "effect on the cell cycle", "setting": "Mel 202 cells [2]", "result": "significantly increases G2/M"}]}]}
